Assays:
PC-3 cells = experiment: Cytotoxicity of TXT and TXT-NPs in PC-3 cells; format: cell-based; conditions: for IC50 / IC90: Homo sapiens
Excerpt: (§1) In order to confirm the efficacy of TXT NPs, we determined IC50 of the drug and drug encapsulated in NPs in PC-3 and DU145 cells.

DU145 cells = experiment: Cytotoxicity of TXT and TXT-NPs in DU145 cells; format: cell-based; conditions: DU145, 5 day
Excerpt: as §1

[1] = Solid state solubility of PTX and TXT in polymers (phase separation in cast films); format: physicochemical; set-up: key: +ve: Phase separation; −ve: No phase separation
Excerpt: For this example, polymer and drug solutions in chloroform at different % of drug to polymer were casted into films on glass slides. Following solvent evaporation of chloroform in a chemical hood overnight, the casted films were observed under a light microscope. Phase separation was clearly evident from crystallization of the drug in the polymer film whereas the films were homogeneous when there was no phase separation.

SMILES: CC(=O)O[C@@]12CO[C@@H]1C[C@H](O)[C@@]1(C)C(=O)[C@H](O)C3=C(C)[C@@H](OC(=O)[C@H](O)[C@@H](NC(=O)OC(C)(C)C)c4ccccc4)C[C@@](O)([C@@H](OC(=O)c4ccccc4)[C@H]21)C3(C)C [Docetaxel, (2R,3S)-N-carboxy-3-phenylisoserine, N-tert-butyl ester, 13-ester with 5b-20-epoxy-12a,4,7b,10b,13a-hexahydroxytax-11-en-9-one 4-acetate 2-benzoate, trihydrate]
- IC50 (PC-3 cells; PC-3, 72 h, PC3, 3 day): 2.5 ± 0.05 ng/mL
- IC90 (PC-3 cells; PC-3, 72 h, PC3, 3 day): 6.31 ± 0.17 ng/mL
- IC50 (PC-3 cells; PC-3, 120 h, PC3, 5 day): 1.6 ± 0.01 ng/mL
- IC90 (PC-3 cells; PC-3, 120 h, PC3, 5 day): 5 ± 0.07 ng/mL
- IC50 (PC-3 cells; PC-3, 168 h, PC3, 7 day): 1.6 ± 0.01 ng/mL
- IC90 (PC-3 cells; PC-3, 168 h, PC3, 7 day): 4.2 ± 0.08 ng/mL
- IC75 (PC-3 cells; PC3, 3 day): 3.8 ± 0.03 ng/mL
- IC75 (PC-3 cells; PC3, 5 day): 2.5 ± 0.02 ng/mL
- IC75 (PC-3 cells; PC3, 7 day): 2.5 ± 0.01 ng/mL
- IC75 (DU145 cells): 1.9 ± 0.03 ng/mL
- IC50 (DU145 cells; Homo sapiens, DU-145, 120 h): 1.5 ± 0.04 ng/mL
- IC90 (DU145 cells; Homo sapiens, DU-145, 120 h): 2.4 ± 0.02 ng/mL
- Phase Separation ([1]; drug 1% w/w, polymer inherent viscosity 0.16 dL/g, Lactide/Glycolide 50/50): −
- Phase Separation ([1]; drug 1% w/w, polymer inherent viscosity 0.18 dL/g, Lactide/Glycolide 75/25): +
- Phase Separation ([1]; drug 1% w/w, polymer inherent viscosity 0.26-0.54 dL/g, Lactide/Glycolide 50/50, Ester Terminated): +
- Phase Separation ([1]; drug 1% w/w, polymer inherent viscosity 0.39 dL/g, Lactide/Glycolide 50/50): −
- Phase Separation ([1]; drug 1% w/w, polymer inherent viscosity 0.55-0.75 dL/g, Lactide/Glycolide 50/50, Carbohydrate end Group): +
- Phase Separation ([1]; drug 1% w/w, polymer inherent viscosity 0.63 dL/g, Lactide/Glycolide 85/15): +
- Phase Separation ([1]; drug 1% w/w, polymer inherent viscosity 0.64 dL/g, Lactide/Glycolide 65/35): +
- Phase Separation ([1]; drug 1% w/w, polymer inherent viscosity 0.64 dL/g, Lactide/Glycolide 75/25): +
- Phase Separation ([1]; drug 1% w/w, polymer inherent viscosity 0.67 dL/g, Lactide/Glycolide 65/35): −
- Phase Separation ([1]; drug 1% w/w, polymer inherent viscosity 0.69 dL/g, Lactide/Glycolide 50/50 (first of two such lines, r12)): −
- Phase Separation ([1]; drug 1% w/w, polymer inherent viscosity 0.69 dL/g, Lactide/Glycolide 50/50 (second of two such lines, r13)): +
- Phase Separation ([1]; drug 1% w/w, polymer inherent viscosity 0.76-0.94 dL/g, Lactide/Glycolide 50/50): +
- Phase Separation ([1]; drug 1% w/w, polymer inherent viscosity 0.87 dL/g, Lactide/Glycolide 50/50): +
- Phase Separation ([1]; drug 1% w/w, polymer inherent viscosity 0.95-1.20 dL/g, Lactide/Glycolide 50/50): −
- Phase Separation ([1]; drug 1% w/w, polymer inherent viscosity 1.15 dL/g, Lactide/Glycolide 50/50): +
- Phase Separation ([1]; drug 1% w/w, polymer inherent viscosity 1.24 dL/g, Lactide/Glycolide 50/50): +
- Phase Separation ([1]; drug 5% w/w, polymer inherent viscosity 0.16 dL/g, Lactide/Glycolide 50/50): −
- Phase Separation ([1]; drug 5% w/w, polymer inherent viscosity 0.18 dL/g, Lactide/Glycolide 75/25): +
- Phase Separation ([1]; drug 5% w/w, polymer inherent viscosity 0.26-0.54 dL/g, Lactide/Glycolide 50/50, Ester Terminated): +
- Phase Separation ([1]; drug 5% w/w, polymer inherent viscosity 0.39 dL/g, Lactide/Glycolide 50/50): −
- Phase Separation ([1]; drug 5% w/w, polymer inherent viscosity 0.55-0.75 dL/g, Lactide/Glycolide 50/50, Carbohydrate end Group): +
- Phase Separation ([1]; drug 5% w/w, polymer inherent viscosity 0.63 dL/g, Lactide/Glycolide 85/15): +
- Phase Separation ([1]; drug 5% w/w, polymer inherent viscosity 0.64 dL/g, Lactide/Glycolide 65/35): +
- Phase Separation ([1]; drug 5% w/w, polymer inherent viscosity 0.64 dL/g, Lactide/Glycolide 75/25): +
- Phase Separation ([1]; drug 5% w/w, polymer inherent viscosity 0.67 dL/g, Lactide/Glycolide 65/35): +
- Phase Separation ([1]; drug 5% w/w, polymer inherent viscosity 0.69 dL/g, Lactide/Glycolide 50/50 (first of two such lines, r12)): −
- Phase Separation ([1]; drug 5% w/w, polymer inherent viscosity 0.69 dL/g, Lactide/Glycolide 50/50 (second of two such lines, r13)): +
- Phase Separation ([1]; drug 5% w/w, polymer inherent viscosity 0.76-0.94 dL/g, Lactide/Glycolide 50/50): +
- Phase Separation ([1]; drug 5% w/w, polymer inherent viscosity 0.87 dL/g, Lactide/Glycolide 50/50): +
- Phase Separation ([1]; drug 5% w/w, polymer inherent viscosity 0.95-1.20 dL/g, Lactide/Glycolide 50/50): −
- Phase Separation ([1]; drug 5% w/w, polymer inherent viscosity 1.15 dL/g, Lactide/Glycolide 50/50): +
- Phase Separation ([1]; drug 5% w/w, polymer inherent viscosity 1.24 dL/g, Lactide/Glycolide 50/50): +
- Phase Separation ([1]; drug 10% w/w, polymer inherent viscosity 0.16 dL/g, Lactide/Glycolide 50/50): −
- Phase Separation ([1]; drug 10% w/w, polymer inherent viscosity 0.18 dL/g, Lactide/Glycolide 75/25): +
- Phase Separation ([1]; drug 10% w/w, polymer inherent viscosity 0.26-0.54 dL/g, Lactide/Glycolide 50/50, Ester Terminated): +
- Phase Separation ([1]; drug 10% w/w, polymer inherent viscosity 0.39 dL/g, Lactide/Glycolide 50/50): −
- Phase Separation ([1]; drug 10% w/w, polymer inherent viscosity 0.55-0.75 dL/g, Lactide/Glycolide 50/50, Carbohydrate end Group): +
- Phase Separation ([1]; drug 10% w/w, polymer inherent viscosity 0.63 dL/g, Lactide/Glycolide 85/15): +
- Phase Separation ([1]; drug 10% w/w, polymer inherent viscosity 0.64 dL/g, Lactide/Glycolide 65/35): +
- Phase Separation ([1]; drug 10% w/w, polymer inherent viscosity 0.64 dL/g, Lactide/Glycolide 75/25): +
- Phase Separation ([1]; drug 10% w/w, polymer inherent viscosity 0.67 dL/g, Lactide/Glycolide 65/35): +
- Phase Separation ([1]; drug 10% w/w, polymer inherent viscosity 0.69 dL/g, Lactide/Glycolide 50/50 (first of two such lines, r12)): −
- Phase Separation ([1]; drug 10% w/w, polymer inherent viscosity 0.69 dL/g, Lactide/Glycolide 50/50 (second of two such lines, r13)): +
- Phase Separation ([1]; drug 10% w/w, polymer inherent viscosity 0.76-0.94 dL/g, Lactide/Glycolide 50/50): +
- Phase Separation ([1]; drug 10% w/w, polymer inherent viscosity 0.87 dL/g, Lactide/Glycolide 50/50): +
- Phase Separation ([1]; drug 10% w/w, polymer inherent viscosity 0.95-1.20 dL/g, Lactide/Glycolide 50/50): −
- Phase Separation ([1]; drug 10% w/w, polymer inherent viscosity 1.15 dL/g, Lactide/Glycolide 50/50): +
- Phase Separation ([1]; drug 10% w/w, polymer inherent viscosity 1.24 dL/g, Lactide/Glycolide 50/50): +
- Phase Separation ([1]; drug 15% w/w, polymer inherent viscosity 0.16 dL/g, Lactide/Glycolide 50/50): −
- Phase Separation ([1]; drug 15% w/w, polymer inherent viscosity 0.18 dL/g, Lactide/Glycolide 75/25): +
- Phase Separation ([1]; drug 15% w/w, polymer inherent viscosity 0.26-0.54 dL/g, Lactide/Glycolide 50/50, Ester Terminated): +
- Phase Separation ([1]; drug 15% w/w, polymer inherent viscosity 0.39 dL/g, Lactide/Glycolide 50/50): −
- Phase Separation ([1]; drug 15% w/w, polymer inherent viscosity 0.55-0.75 dL/g, Lactide/Glycolide 50/50, Carbohydrate end Group): +
- Phase Separation ([1]; drug 15% w/w, polymer inherent viscosity 0.63 dL/g, Lactide/Glycolide 85/15): +
- Phase Separation ([1]; drug 15% w/w, polymer inherent viscosity 0.64 dL/g, Lactide/Glycolide 65/35): +
- Phase Separation ([1]; drug 15% w/w, polymer inherent viscosity 0.64 dL/g, Lactide/Glycolide 75/25): +
- Phase Separation ([1]; drug 15% w/w, polymer inherent viscosity 0.67 dL/g, Lactide/Glycolide 65/35): +
- Phase Separation ([1]; drug 15% w/w, polymer inherent viscosity 0.69 dL/g, Lactide/Glycolide 50/50 (first of two such lines, r12)): −
- Phase Separation ([1]; drug 15% w/w, polymer inherent viscosity 0.69 dL/g, Lactide/Glycolide 50/50 (second of two such lines, r13)): +
- Phase Separation ([1]; drug 15% w/w, polymer inherent viscosity 0.76-0.94 dL/g, Lactide/Glycolide 50/50): +
- Phase Separation ([1]; drug 15% w/w, polymer inherent viscosity 0.87 dL/g, Lactide/Glycolide 50/50): +
- Phase Separation ([1]; drug 15% w/w, polymer inherent viscosity 0.95-1.20 dL/g, Lactide/Glycolide 50/50): −
- Phase Separation ([1]; drug 15% w/w, polymer inherent viscosity 1.15 dL/g, Lactide/Glycolide 50/50): +
- Phase Separation ([1]; drug 15% w/w, polymer inherent viscosity 1.24 dL/g, Lactide/Glycolide 50/50): +
- Phase Separation ([1]; drug 20% w/w, polymer inherent viscosity 0.16 dL/g, Lactide/Glycolide 50/50): −
- Phase Separation ([1]; drug 20% w/w, polymer inherent viscosity 0.18 dL/g, Lactide/Glycolide 75/25): +
- Phase Separation ([1]; drug 20% w/w, polymer inherent viscosity 0.26-0.54 dL/g, Lactide/Glycolide 50/50, Ester Terminated): +
- Phase Separation ([1]; drug 20% w/w, polymer inherent viscosity 0.39 dL/g, Lactide/Glycolide 50/50): −
- Phase Separation ([1]; drug 20% w/w, polymer inherent viscosity 0.55-0.75 dL/g, Lactide/Glycolide 50/50, Carbohydrate end Group): +
- Phase Separation ([1]; drug 20% w/w, polymer inherent viscosity 0.63 dL/g, Lactide/Glycolide 85/15): +
- Phase Separation ([1]; drug 20% w/w, polymer inherent viscosity 0.64 dL/g, Lactide/Glycolide 65/35): +
- Phase Separation ([1]; drug 20% w/w, polymer inherent viscosity 0.64 dL/g, Lactide/Glycolide 75/25): +
- Phase Separation ([1]; drug 20% w/w, polymer inherent viscosity 0.67 dL/g, Lactide/Glycolide 65/35): +
- Phase Separation ([1]; drug 20% w/w, polymer inherent viscosity 0.69 dL/g, Lactide/Glycolide 50/50 (first of two such lines, r12)): +
- Phase Separation ([1]; drug 20% w/w, polymer inherent viscosity 0.69 dL/g, Lactide/Glycolide 50/50 (second of two such lines, r13)): +
- Phase Separation ([1]; drug 20% w/w, polymer inherent viscosity 0.76-0.94 dL/g, Lactide/Glycolide 50/50): +
- Phase Separation ([1]; drug 20% w/w, polymer inherent viscosity 0.87 dL/g, Lactide/Glycolide 50/50): +
- Phase Separation ([1]; drug 20% w/w, polymer inherent viscosity 0.95-1.20 dL/g, Lactide/Glycolide 50/50): +
- Phase Separation ([1]; drug 20% w/w, polymer inherent viscosity 1.15 dL/g, Lactide/Glycolide 50/50): +
- Phase Separation ([1]; drug 20% w/w, polymer inherent viscosity 1.24 dL/g, Lactide/Glycolide 50/50): +

Source: patent US11013817B2, “Nanoparticles for drug delivery to treat bone disease” (The Cleveland Clinic Foundation, priority 2016, dated 2021)
